According to patent US8759098B2, “Method for cloning pluripotent stem cells” (Boston Biomedical Research Institute, Inc., priority 2009, dated 2014):

How the values were obtained:
Assay type in all cases: cell-based, mouse
[1] = test system: reprogramming genes (Oct4, Sox2, Klf4, Myc, Lin28) in Panstra-11-Xn Non-responsive; assay: Micro-array expression of reprogramming gene mRNAs, Panstra-11
Description: (§1) Table 2. Micro-array expression levels for described iPSC reprogramming gene mRNAs in SACK-derived mouse pancreatic stem cell strains. […] Panstra-11 is a non-responsive strain.
(§2) All the described induced pluripotent stem cell (iPSC) reprogramming genes are detected in two cell strains derived with the suppression of asymmetric cell kinetics (SACK)-agent xanthine (Xn). The SACK strains were derived from pancreatic islets of adult xanthine phosphoribosyl transferase (XPRT)-transgenic mice. The derivation of such strains requires both the XPRT-transgenic genotype and Xn.

[2] = test system: reprogramming genes (Oct4, Sox2, Klf4, Myc, Lin28) in Panstra-25 - Xn responsive; assay: Micro-array expression of reprogramming gene mRNAs, Panstra-25
Description: as §1, §2

[3] = test system: Panstra 25; assay: SACK responsiveness (cell kinetics, colony formation), Panstra 25; set-up: key: SACK-responsive (R); non-responsive (NR); settings: Panstra 25, SACK agent Xn
Method: (§3) Cells were plated at colony forming density in SACK-free culture medium (Control) or culture medium supplemented to 1 mM concentration with the SACK agents xanthosine (Xs), xanthine (Xn), or hypoxanthine (Hx).
(§4) The terms “SACK-R” and “Xn-responsive” are used interchangeably. Xn-responsive cells are not transformed cells.
(§5) In the example, the differentiated cells are adult mouse pancreatic islet cells and Xn is the chemical compound used to suppress asymmetric cell kinetics (SACK). […] These Xn-treated and Xn-responsive cells then proceeded to express alkaline phosphatase, a known enzyme marker that is highly expressed in undifferentiated cells such as primordial germ cells (FIG. 8), after culture in media that support the proliferation of mouse pluripotent stem cells. Under these conditions, these Xn-expanded and Xn-responsive cells also multiply to form colonies that take on a clonal mouse embryonic stem cell-like morphology in culture, resembling a compact clump of round tiny cells, the clump having a smooth and well defined edge (FIG. 7B).
(§6) The SACK-derived clonal pancreatic cell strains have properties of either beta-cell precursors (Pdx1+) or more primitive pancreatic cells (Pdx1−). In the colony formation analyses, three hundred (300) cells were plated in replicate (n=3) 30-mm diameter culture dishes. […] Ten days later, plates were stained with crystal violet and colonies counted. […]

[4] = test system: SACK-R strain Panstra-25; assay: Insulin expression by immunofluorescence, pancreatic differentiation; settings: routine culture conditions with Xn supplementation, three days
Description: Upper panels, routine culture conditions with Xn supplementation; lower panels, Xn-free differentiation conditions. DAPI, detection of corresponding cell nuclei. The expression of insulin was detected by immunofluorescence (data not shown). In order to study the formation of islet-like clusters after induction of differentiation in Xn-free medium, pancreatic beta-cell differentiation was induced by plating the cells on a poly-D-lysine substrate and changing growth medium to medium containing 1% dialysed fetal bovine serum, 20 ng/mL epidermal growth factor (EGF), 10 mM nicotinamide, and 25 mM glucose. […] Insulin was expressed in cells differentiated in Xn-free conditions after three days. The expression of insulin was detected by immunofluorescence (data not shown). DAPI, detection of corresponding cell nuclei. […] These properties of self-renewal in an undifferentiated state and the ability to produce differentiated pancreatic cells define the SACK-R strains as pancreatic tissue stem cells.

[5] = test system: Panstra 11; assay: SACK responsiveness (cell kinetics, colony formation), Panstra 11; set-up: key: SACK-responsive (R); non-responsive (NR); settings: Panstra 11, SACK agent Xn
Method: as §3, §4, §5, §6

[6] = test system: Panstra 12; assay: SACK responsiveness (cell kinetics, colony formation), Panstra 12; set-up: key: SACK-responsive (R); non-responsive (NR); settings: Panstra 12, SACK agent Xn
Description: as §4, §5
The SACK-derived clonal pancreatic cell strains have properties of either beta-cell precursors (Pdx1+) or more primitive pancreatic cells (Pdx1−). In the colony formation analyses, three hundred (300) cells were plated in replicate (n=3) 30-mm diameter culture dishes. Twenty-four hours later, the culture medium was replaced with the medium supplemented with SACK agents as indicated. Ten days later, plates were stained with crystal violet and colonies counted. Xs, xanthosine; Xn, xanthine; Hx hypoxanthine.

[7] = test system: SACK-responsive, Pdx1-positive Panstra-25 pancreatic stem cells; assay: Gene-free iPSC reprogramming on STO feeders, colony phenotypes, Panstra-25; settings: for Estimated gene-free iPSC colony formation efficiency, ES, AP+ (iPSC state) / Estimated gene-free iPSC colony formation efficiency, ES, AP− / Estimated gene-free iPSC colony formation efficiency, Fl, AP+ / Estimated gene-free iPSC colony formation efficiency, Fl, AP− / Phenotype ES, AP+ (iPSC state) of individual cell clones following expansion, clones/total / Phenotype ES, AP+ (iPSC state) of individual cell clones following expansion, percent / Phenotype ES, AP− of individual cell clones following expansion, clones/total / Phenotype ES, AP− of individual cell clones following expansion, percent / Phenotype Fl, AP+ of individual cell clones following expansion, clones/total / Phenotype Fl, AP+ of individual cell clones following expansion, percent / Phenotype Fl, AP− of individual cell clones following expansion, clones/total / Phenotype Fl, AP− of individual cell clones following expansion, percent: Panstra-25, 1 mM Xn
Method: Each tested SACK-derived cell strain was cultured on STO cell feeder monolayers in control medium with 10% DFBS, dialyzed fetal bovine serum (DFBS) or either of two commercial media for culture of murine embryonic stem cells (ESCs) and for the culture of reprogrammed cells such as iPSCs. Each medium condition was evaluated with or without supplementation with 1 mM xanthine (Xn). P/S denotes routine use of the antibiotics penicillin and streptomycin.
The method is an original pharmacological procedure for producing pluripotent stem cells. Cell strains derived in xanthine (Xn)-supplemented medium, by the method of suppression of asymmetric cell kinetics (SACK), were cultured in commercial media specified for the culture and/or production of pluripotent stem cells such as embryonic stem cells and iPSCs. Approximately 150,000 cells were plated on confluent STO cell feeders (i.e., mouse embryonic fibroblasts pre-treated with mitomycin C) in 10-cm culture dishes. In 2 weeks, iPSC-like cell colonies were detected.
To establish clonal strains, single colonies were picked, cultured in individual wells, and expanded for further study and cryo-preservation. A high fraction of the derived cell clones have morphological and biochemical properties indicative of iPSC cells.
Tissue-specific stem cells (e.g., Panstra-25 and Panstra-12 mouse pancreatic stem cell strains in the instant example) were cultured on mitomycin C-treated STO cell monolayers in commercial embryonic stem cell medium supplemented with the purine salvage base xanthine at 1 mM concentration (FIG. 4). Within 2-3 weeks of culture under otherwise standard conditions, cell colonies with embryonic stem cell-like morphology developed (FIG. 7B). These colonies were removed by mild trypsin treatment, transferred to individual cell culture wells prepared with STO cell feeders, and expanded in the respective embryonic stem cell culture medium supplemented with 1 mM xanthine (FIG. 5). The expanded cell clones expressed alkaline phosphatase (FIG. 8), a biochemical biomarker for the pluripotent phenotype of embryonic stem cells and iPSC cells. […] Xn supplementation increased the average production efficiency by as much as 3-fold (Table 6).

SMILES: O=c1[nH]c(=O)c2[nH]cnc2[nH]1 [Xn, xanthine]
- Klf4 expression (gene micro-array data) [1]: 21.6
- Lin28 expression (gene micro-array data) [1]: 0.9
- Myc expression (gene micro-array data) [1]: 19.6
- Oct4 expression (gene micro-array data) [1]: 2.6
- Sox2 expression (gene micro-array data) [1]: 0.1
- Klf4 expression (gene micro-array data) ([2]; Panstra-25, Xn): 31.8
- Lin28 expression (gene micro-array data) ([2]; Panstra-25, Xn): 1.0
- Myc expression (gene micro-array data) ([2]; Panstra-25, Xn): 35.5
- Oct4 expression (gene micro-array data) ([2]; Panstra-25, Xn): 2.3
- Sox2 expression (gene micro-array data) ([2]; Panstra-25, Xn): 0.2
- Klf4 and Myc mRNA expression in response to culture in Xn ([2]; SACK-derived strains, Table 2): increased mRNA expression
- SACK Type [3]: R
- expression of insulin (immunofluorescence) [4]: no expressed insulin was detectable
- SACK Type [5]: NR
- SACK Type [6]: R
- iPSC (gene-free iPSC reprogramming) ([7]; Panstra 25, SACK agent Xn): Yes
- Estimated gene-free iPSC colony formation efficiency, ES, AP+ (iPSC state) ([7]; DFBS): 0.000%
- Estimated gene-free iPSC colony formation efficiency, ES, AP− ([7]; DFBS): 0.000%
- Estimated gene-free iPSC colony formation efficiency, Fl, AP+ ([7]; DFBS): 0.000%
- Estimated gene-free iPSC colony formation efficiency, Fl, AP− ([7]; DFBS): 0.059%
- Phenotype ES, AP+ (iPSC state) of individual cell clones following expansion, clones/total ([7]; DFBS): 0/22
- Phenotype ES, AP+ (iPSC state) of individual cell clones following expansion, percent ([7]; DFBS): 0%
- Phenotype ES, AP− of individual cell clones following expansion, clones/total ([7]; DFBS): 0/22
- Phenotype ES, AP− of individual cell clones following expansion, percent ([7]; DFBS): 0%
- Phenotype Fl, AP+ of individual cell clones following expansion, clones/total ([7]; DFBS): 0/22
- Phenotype Fl, AP+ of individual cell clones following expansion, percent ([7]; DFBS): 0%
- Phenotype Fl, AP− of individual cell clones following expansion, clones/total ([7]; DFBS): 22/22
- Phenotype Fl, AP− of individual cell clones following expansion, percent ([7]; DFBS): 100%
- Estimated gene-free iPSC colony formation efficiency, ES, AP+ (iPSC state) ([7]; KOSR): 0.016%
- Estimated gene-free iPSC colony formation efficiency, ES, AP− ([7]; KOSR): 0.037%
- Estimated gene-free iPSC colony formation efficiency, Fl, AP+ ([7]; KOSR): 0.000%
- Estimated gene-free iPSC colony formation efficiency, Fl, AP− ([7]; KOSR): 0.000%
- Phenotype ES, AP+ (iPSC state) of individual cell clones following expansion, clones/total ([7]; KOSR): 6/20
- Phenotype ES, AP+ (iPSC state) of individual cell clones following expansion, percent ([7]; KOSR): 30%
- Phenotype ES, AP− of individual cell clones following expansion, clones/total ([7]; KOSR): 14/20
- Phenotype ES, AP− of individual cell clones following expansion, percent ([7]; KOSR): 70%
- Phenotype Fl, AP+ of individual cell clones following expansion, clones/total ([7]; KOSR): 0/20
- Phenotype Fl, AP+ of individual cell clones following expansion, percent ([7]; KOSR): 0%
- Phenotype Fl, AP− of individual cell clones following expansion, clones/total ([7]; KOSR): 0/20
- Phenotype Fl, AP− of individual cell clones following expansion, percent ([7]; KOSR): 0%
- Estimated gene-free iPSC colony formation efficiency, ES, AP+ (iPSC state) ([7]; hiFBS): 0.008%
- Estimated gene-free iPSC colony formation efficiency, ES, AP− ([7]; hiFBS): 0.027%
- Estimated gene-free iPSC colony formation efficiency, Fl, AP+ ([7]; hiFBS): 0.003%
- Estimated gene-free iPSC colony formation efficiency, Fl, AP− ([7]; hiFBS): 0.013%
- Phenotype ES, AP+ (iPSC state) of individual cell clones following expansion, clones/total ([7]; hiFBS): 3/19
- Phenotype ES, AP+ (iPSC state) of individual cell clones following expansion, percent ([7]; hiFBS): 16%
- Phenotype ES, AP− of individual cell clones following expansion, clones/total ([7]; hiFBS): 10/19
